Measured values from patent publication US7256286B2, “Bryostatin analogues, synthetic methods and uses” (The Board of Trustees of the Leland Stanford Junior …, priority 1999, dated 2007).

How the values were obtained:
SR = assay: NCI human cancer cell line growth inhibition: SR; format: cell-based; conditions: Leukemia
NCI-H460 = format: cell-based, human; conditions: NCI-H460, NSC Lung
SN12C = assay: NCI human cancer cell line growth inhibition: SN12C; format: cell-based; conditions: Renal
SK-MEL-5 = assay: NCI human cancer cell line growth inhibition: SK-MEL-5; format: cell-based; conditions: SK-MEL-5, Melanoma
IGROVI = assay: NCI human cancer cell line growth inhibition: IGROVI; format: cell-based; conditions: Ovarian
SW-620 = assay: NCI human cancer cell line growth inhibition: SW-620; format: cell-based; conditions: SW-620, Colon
HT29 = assay: NCI human cancer cell line growth inhibition: HT29; format: cell-based; conditions: HT29, Colon
UACC-62 = assay: NCI human cancer cell line growth inhibition: UACC-62; format: cell-based; conditions: UACC-62, Melanoma
HCT-15 = assay: NCI human cancer cell line growth inhibition: HCT-15; format: cell-based; conditions: HCT-15, Colon
HS 578T = assay: NCI human cancer cell line growth inhibition: HS 578T; format: cell-based; conditions: Breast
A549/ATCC = assay: NCI human cancer cell line growth inhibition: A549/ATCC; format: cell-based; conditions: NSC Lung
CAKI-1 = assay: NCI human cancer cell line growth inhibition: CAKI-1; format: cell-based; conditions: CAKI-1, Renal
MI4 = assay: NCI human cancer cell line growth inhibition: MI4; format: cell-based; conditions: MI4, Melanoma
MDA-MB-435 = assay: NCI human cancer cell line growth inhibition: MDA-MB-435; format: cell-based; conditions: MDA-MB-435, Breast
OVCAR-3 = assay: NCI human cancer cell line growth inhibition: OVCAR-3; format: cell-based; conditions: OVCAR-3, Ovarian
ACHN = assay: NCI human cancer cell line growth inhibition: ACHN; format: cell-based; conditions: Renal
OVCAR-8 = assay: NCI human cancer cell line growth inhibition: OVCAR-8; format: cell-based; conditions: OVCAR-8, Ovarian
OVCAR-5 = assay: NCI human cancer cell line growth inhibition: OVCAR-5; format: cell-based; conditions: OVCAR-5, Ovarian
EKVX = assay: NCI human cancer cell line growth inhibition: EKVX; format: cell-based; conditions: NSC Lung
HOP-92 = assay: NCI human cancer cell line growth inhibition: HOP-92; format: cell-based; conditions: HOP-92, NSC Lung
SF-295 = assay: NCI human cancer cell line growth inhibition: SF-295; format: cell-based; conditions: SF-295, CNS
A498 = assay: NCI human cancer cell line growth inhibition: A498; format: cell-based; conditions: A498, Renal
HL-60(TB) = assay: cells; format: cell-based, human
T-47D = assay: NCI human cancer cell line growth inhibition: T-47D; format: cell-based; conditions: Breast
TK-10 = assay: NCI human cancer cell line growth inhibition: TK-10; format: cell-based; conditions: TK-10, Renal
MOLT-4 = assay: NCI human cancer cell line growth inhibition: MOLT-4; format: cell-based; conditions: MOLT-4, Leukemia
CCRF-CEM = assay: NCI human cancer cell line growth inhibition: CCRF-CEM; format: cell-based; conditions: Leukemia
NCI-H522 = format: cell-based, human; conditions: NCI-H522, NSC Lung
HCC-2998 = assay: NCI human cancer cell line growth inhibition: HCC-2998; format: cell-based; conditions: HCC-2998, Colon
COLO 205 = assay: NCI human cancer cell line growth inhibition: COLO 205; format: cell-based; conditions: COLO 205, Colon
MDA-N = assay: NCI human cancer cell line growth inhibition: MDA-N; format: cell-based; conditions: Breast
PC-3 = assay: NCI human cancer cell line growth inhibition: PC-3; format: cell-based; conditions: PC-3, Prostate
RXF-393 = assay: NCI human cancer cell line growth inhibition: RXF-393; format: cell-based; conditions: RXF-393, Renal
786-0 = assay: NCI human cancer cell line growth inhibition: 786-0; format: cell-based; conditions: 786-0, Renal
K-562 = assay: NCI human cancer cell line growth inhibition: K-562; format: cell-based; conditions: K-562, Leukemia
UO-31 = assay: NCI human cancer cell line growth inhibition: UO-31; format: cell-based; conditions: UO-31, Renal
SK-MEL-28 = assay: NCI human cancer cell line growth inhibition: SK-MEL-28; format: cell-based; conditions: SK-MEL-28, Melanoma
OVCAR-4 = assay: NCI human cancer cell line growth inhibition: OVCAR-4; format: cell-based; conditions: OVCAR-4, Ovarian
HOP-62 = assay: NCI human cancer cell line growth inhibition: HOP-62; format: cell-based; conditions: HOP-62, NSC Lung
LOX IMVI = assay: NCI human cancer cell line growth inhibition: LOX IMVI; format: cell-based; conditions: Melanoma
SF-268 = assay: NCI human cancer cell line growth inhibition: SF-268; format: cell-based; conditions: SF-268, CNS
RPMI-8226 = assay: NCI human cancer cell line growth inhibition: RPMI-8226; format: cell-based; conditions: RPMI-8226, Leukemia
NCI-H226 = format: cell-based, human; conditions: NCI-H226, NSC Lung
HCT-116 = assay: NCI human cancer cell line growth inhibition: HCT-116; format: cell-based; conditions: HCT-116, Colon
DU-145 = assay: NCI human cancer cell line growth inhibition: DU-145; format: cell-based; conditions: DU-145, Prostate
SK-OV-3 = assay: NCI human cancer cell line growth inhibition: SK-OV-3; format: cell-based; conditions: SK-OV-3, Ovarian
SNB-75 = assay: NCI human cancer cell line growth inhibition: SNB-75; format: cell-based; conditions: SNB-75, CNS
MALME-3M = assay: NCI human cancer cell line growth inhibition: MALME-3M; format: cell-based; conditions: Melanoma
UACC-257 = assay: NCI human cancer cell line growth inhibition: UACC-257; format: cell-based; conditions: UACC-257, Melanoma
U251 = assay: NCI human cancer cell line growth inhibition: U251; format: cell-based; conditions: U251, CNS
MCF7 = assay: NCI human cancer cell line growth inhibition: MCF7; format: cell-based; conditions: MCF7, Breast
NCI/ADR-RES = format: cell-based, human; conditions: Breast
SK-MEL-2 = assay: NCI human cancer cell line growth inhibition: SK-MEL-2; format: cell-based; conditions: SK-MEL-2, Melanoma
MDA-MB-231/ATCC = assay: NCI human cancer cell line growth inhibition: MDA-MB-231/ATCC; format: cell-based; conditions: Breast
KM12 = assay: NCI human cancer cell line growth inhibition: KM12; format: cell-based; conditions: KM12, Colon
BT-549 = assay: NCI human cancer cell line growth inhibition: BT-549; format: cell-based; conditions: BT-549, Breast
SNB-19 = assay: NCI human cancer cell line growth inhibition: SNB-19; format: cell-based; conditions: SNB-19, CNS
SF-539 = assay: NCI human cancer cell line growth inhibition: SF-539; format: cell-based; conditions: SF-539, CNS
NCI-H23 = format: cell-based, human; conditions: NCI-H23, NSC Lung

For `CCC/C=C/C=C/C(=O)O[C@H]1/C(=C/C(=O)OC)C[C@H]2C[C@H]([C@@H](C)O)OC(=O)C[C@H](O)C[C@@H]3C[C@H](OC(C)=O)C(C)(C)[C@](O)(C[C@@H]4C/C(=C/C(=O)OC)C[C@H](/C=C/C(C)(C)[C@]1(O)O2)O4)O3` [Bryo-1, reference compound], the “Growth inhibition (GI50)” value (SR) was >−5 log of molar concentration, the “Growth inhibition (GI50)” value (NCI-H460) was −5.60 log of molar concentration and the “Growth inhibition (GI50)” value (SN12C) was −5.10 log of molar concentration. The “Growth inhibition (GI50)” value (SK-MEL-5) was −5.70 log of molar concentration, the “Growth inhibition (GI50)” value (IGROVI) was −5.30 log of molar concentration and the “Growth inhibition (GI50)” value (SW-620) was −5.50 log of molar concentration. For the same compound, the “Growth inhibition (GI50)” value (HT29) was −5.30 log of molar concentration, the “Growth inhibition (GI50)” value (UACC-62) was −5.30 log of molar concentration and the “Growth inhibition (GI50)” value (HCT-15) was >−5 log of molar concentration. The “Growth inhibition (GI50)” value (HS 578T) was −5.2 log of molar concentration, the “Growth inhibition (GI50)” value (A549/ATCC) was −5.20 log of molar concentration and the “Growth inhibition (GI50)” value (CAKI-1) was −5.40 log of molar concentration. The “Growth inhibition (GI50)” value (MI4) was >−5 log of molar concentration, the “Growth inhibition (GI50)” value (MDA-MB-435) was −5.10 log of molar concentration and the “Growth inhibition (GI50)” value (OVCAR-3) was −5.10 log of molar concentration. The “Growth inhibition (GI50)” value (ACHN) was −5.50 log of molar concentration, the “Growth inhibition (GI50)” value (OVCAR-8) was −5.10 log of molar concentration and the “Growth inhibition (GI50)” value (OVCAR-5) was >−5 log of molar concentration. The “Growth inhibition (GI50)” value (EKVX) was −5.30 log of molar concentration, the “Growth inhibition (GI50)” value (HOP-92) was −5.30 log of molar concentration and the “Growth inhibition (GI50)” value (SF-295) was −5.20 log of molar concentration. For the same compound, the “Growth inhibition (GI50)” value (A498) was >−5 log of molar concentration, the “Growth inhibition (GI50)” value (HL-60(TB)) was −5.70 log of molar concentration and the “Growth inhibition (GI50)” value (T-47D) was −5.20 log of molar concentration. For the same compound, the “Growth inhibition (GI50)” value (TK-10) was >−5 log of molar concentration, the “Growth inhibition (GI50)” value (MOLT-4) was −5.50 log of molar concentration and the “Growth inhibition (GI50)” value (CCRF-CEM) was −5.30 log of molar concentration. For the same compound, the “Growth inhibition (GI50)” value (NCI-H522) was >−5 log of molar concentration, the “Growth inhibition (GI50)” value (HCC-2998) was −5.30 log of molar concentration and the “Growth inhibition (GI50)” value (COLO 205) was −5.40 log of molar concentration. For the same compound, the “Growth inhibition (GI50)” value (MDA-N) was −5.10 log of molar concentration, the “Growth inhibition (GI50)” value (PC-3) was −5.30 log of molar concentration and the “Growth inhibition (GI50)” value (RXF-393) was −5.30 log of molar concentration. The “Growth inhibition (GI50)” value (786-0) was −5.20 log of molar concentration, the “Growth inhibition (GI50)” value (K-562) was −5.40 log of molar concentration and the “Growth inhibition (GI50)” value (UO-31) was −5.60 log of molar concentration. The “Growth inhibition (GI50)” value (SK-MEL-28) was −5.10 log of molar concentration, the “Growth inhibition (GI50)” value (OVCAR-4) was −5.50 log of molar concentration and the “Growth inhibition (GI50)” value (HOP-62) was >−5 log of molar concentration. The “Growth inhibition (GI50)” value (LOX IMVI) was −5.10 log of molar concentration, the “Growth inhibition (GI50)” value (SF-268) was −5.10 log of molar concentration and the “Growth inhibition (GI50)” value (RPMI-8226) was >−5 log of molar concentration. For the same compound, the “Growth inhibition (GI50)” value (NCI-H226) was >−5 log of molar concentration, the “Growth inhibition (GI50)” value (HCT-116) was −5.30 log of molar concentration and the “Growth inhibition (GI50)” value (DU-145) was >−5 log of molar concentration. The “Growth inhibition (GI50)” value (SK-OV-3) was −5.10 log of molar concentration, the “Growth inhibition (GI50)” value (SNB-75) was −5.50 log of molar concentration and the “Growth inhibition (GI50)” value (MALME-3M) was −5.20 log of molar concentration. The “Growth inhibition (GI50)” value (UACC-257) was −5.10 log of molar concentration, the “Growth inhibition (GI50)” value (U251) was −5.10 log of molar concentration and the “Growth inhibition (GI50)” value (MCF7) was −5.20 log of molar concentration. The “Growth inhibition (GI50)” value (NCI/ADR-RES) was >−5 log of molar concentration, the “Growth inhibition (GI50)” value (SK-MEL-2) was −5.20 log of molar concentration and the “Growth inhibition (GI50)” value (MDA-MB-231/ATCC) was −5.20 log of molar concentration. The “Growth inhibition (GI50)” value (KM12) was −5.20 log of molar concentration, the “Growth inhibition (GI50)” value (BT-549) was −5.10 log of molar concentration and the “Growth inhibition (GI50)” value (SNB-19) was >−5 log of molar concentration. For the same compound, the “Growth inhibition (GI50)” value (SF-539) was >−5 log of molar concentration and the “Growth inhibition (GI50)” value (NCI-H23) was >−5 log of molar concentration.
